In patent US20250099405A1, “COMPOSITIONS, METHODS, AND DEVELOPMENT OF ARID4B INHIBITORS” (University of Kentucky Research Foundation, priority 2022, published 2025):

Key:
[1] = Tolerability of ARD150 in mice; assay type: in vivo; conditions: 125 mg/kg
Description: (§1) Representative HE images of liver and spleen from mice treated with vehicle or ARD150. Images from vehicle and the highest doses of ARD150 (125 mg/kg) were shown (B). […] Three biological replicates for each time point.
The rational development of a small molecule inhibitor (SMI) of a given protein-protein pathway involves a multidisciplinary approach: computational studies, chemical synthesis, characterization of compounds, and biological characterization. ARID4B lacks a defined crystal structure which requires a heavier emphasis on in silico studies to develop SMIs for this pathway. […] Initial biological characterization through cell-based assays and in vitro/in vivo studies have shown that ARD150 targets ARID4B and is tolerable in mice at extremely high concentrations (125 mg/kg). […] Thus, even though ARD150 is a first-in-class inhibitor, further optimization is necessary to improve its characteristics as a theoretical treatment option for endocrine-resistant breast cancer.

Flag-ARID4A = biological target: T1, Flag-ARID4A (Homo sapiens, UniProt P29374); test: CETSA in cells expressing Flag-ARID4A; assay type: cell-based; conditions: 10 μM, 2 h
T1 construct: expressed in transfected cells
T1 sequence (P29374 1-1257): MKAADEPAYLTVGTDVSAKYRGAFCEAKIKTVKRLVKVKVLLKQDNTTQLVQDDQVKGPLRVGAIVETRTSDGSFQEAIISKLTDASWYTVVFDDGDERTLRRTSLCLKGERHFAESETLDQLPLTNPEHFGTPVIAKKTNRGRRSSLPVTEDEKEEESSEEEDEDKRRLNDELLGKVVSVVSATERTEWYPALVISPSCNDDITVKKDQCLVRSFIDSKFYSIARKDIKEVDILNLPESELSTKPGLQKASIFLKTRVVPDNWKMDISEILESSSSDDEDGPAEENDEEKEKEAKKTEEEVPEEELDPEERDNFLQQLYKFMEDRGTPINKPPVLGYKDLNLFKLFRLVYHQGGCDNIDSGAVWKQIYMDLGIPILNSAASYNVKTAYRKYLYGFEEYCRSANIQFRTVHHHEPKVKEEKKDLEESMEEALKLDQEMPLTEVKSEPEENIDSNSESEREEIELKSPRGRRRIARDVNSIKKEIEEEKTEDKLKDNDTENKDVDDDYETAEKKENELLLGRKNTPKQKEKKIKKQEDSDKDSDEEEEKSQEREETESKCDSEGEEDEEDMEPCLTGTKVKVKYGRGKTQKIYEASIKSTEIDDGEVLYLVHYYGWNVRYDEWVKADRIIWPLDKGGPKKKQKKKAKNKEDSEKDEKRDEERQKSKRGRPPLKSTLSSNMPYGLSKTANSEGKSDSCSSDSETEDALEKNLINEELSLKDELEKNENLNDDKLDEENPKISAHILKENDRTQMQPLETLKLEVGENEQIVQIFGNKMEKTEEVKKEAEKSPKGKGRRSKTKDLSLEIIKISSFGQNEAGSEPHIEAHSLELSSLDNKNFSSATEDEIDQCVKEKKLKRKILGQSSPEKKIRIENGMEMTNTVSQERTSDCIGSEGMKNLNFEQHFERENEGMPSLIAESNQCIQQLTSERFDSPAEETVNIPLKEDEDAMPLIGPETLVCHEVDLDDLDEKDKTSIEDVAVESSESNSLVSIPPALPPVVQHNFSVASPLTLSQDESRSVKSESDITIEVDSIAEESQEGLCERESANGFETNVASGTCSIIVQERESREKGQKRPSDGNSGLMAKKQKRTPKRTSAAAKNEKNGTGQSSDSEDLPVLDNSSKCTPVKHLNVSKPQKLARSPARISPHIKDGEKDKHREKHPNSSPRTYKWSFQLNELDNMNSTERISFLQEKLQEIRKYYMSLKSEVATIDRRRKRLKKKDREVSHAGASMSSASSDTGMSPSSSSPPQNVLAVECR
Description: (B-C) show cells expressing HA-ARID4B (C) or HA-ARID4BIC (D) treated or not with ARD150 (10 μM) for 2 h were used for CESTA. […] (D-E) show cells expressing HA-ARID4B (D) or Flag-ARID4A (E) treated or not with RWR-18 (10 μM) for 2 h were used for CESTA. […] Data are means±SEM from three experiments. *P<0.05, **P<0.01, ns, not significant.
Using CETSA (cellular thermal shift assay) to examine whether ARD150 or RWR-18 binds to ARID4B, MCF7 cells treated or not with ARD150 or RWR-18 for 2 h were collected, followed by heating at 46, 49, 52, 55, and 58° C. to denature and precipitate ARID4B protein, cell lysis, removal of cell debris and aggregates by centrifugation, and finally detection of remaining thermostable ARID4B protein by western blot. The ARID4B aggregation temperatures without ARD150 were determined to be 49-52° C., but shifted to 52-55° C. after treatment with ARD150 and even more so with RWR-18 (FIG. 15A-D). To determine whether ARD150 and RWR-18 targets the chromodomain of ARID4B, CESTA was performed using chromodomain deletion mutant (ARID4BAC). HEK-293T cells expressing HA-ARID4B or HA-ARID4BAC were treated or not with ARD150 (10 μM) for 2 h and processed for CESTA.

[2] = Plasma stability, incubation with mouse blood plasma, LC-MS; assay type: in vitro ADME; conditions: over the 24 h period, equivalent of 50 mg/kg
Description: as §1
The potential toxicity of RWR-18 was tested using 9-week-old Balb/c female mice. The mice were injected (i.p.) with vehicle or 10 mg/kg, 25 mg/kg, and 50 mg/kg of RWR-18 (daily for 7 days, 3 mice/group). The body weight was measured daily for 21 days. The liver, spleen, heart, lung, and kidney were collected for macroscopic and histological examination. […] Preliminary plasma kinetic studies were performed. Following the incubation of the equivalent of 50 mg/kg of RWR-18 with blood plasma from mice at 10 min, 30 min, 1 h, 4 h, 16 h, and 24 h, we measured the plasma levels of RWR-18 by LC-MS.

Row | shift of aggregation temperatures of Flag-ARID4A (Flag-ARID4A) | reduction in peak area in mouse blood plasma [2] | SMILES | tolerability in mice [1]
1 | – | – | COc1ccc(C(=O)NCCCN2CCOCC2)cc1OC [ARD150] | tolerable
2 | no shift was observed | ~20% | O=C(COc1ccc(OCc2ccccc2)cc1)NCCCN1CCOCC1 [RWR-18] | –
